{"source": "patent US12650423B2", "about": "“Pharmaceutical compositions and use thereof” (HADASIT MEDICAL RESEARCH SERVICES & DEVELOPMENT LTD., priority 2020, dated 2026)", "test_system": "mouse DTH model", "experiment": "Mouse delayed-type hypersensitivity (DTH) model, oxazalone ear swelling", "assay_type": "in vivo", "conditions": "BALB/c mice, oxazalone challenge of right ear, 24 hr after challenge; histology FIGS. 15C-15D", "description": "Mouse DTH in-vivo assay is an inflammatory model which is known as type IV hypersensitivity reactions and is mediated by soluble antigens primarily involving CD4+ or CD8+ T cell activation. This assay is characterized by the release of mediators from activated T cells. The T cells then activate local endothelial cells and recruit macrophages, which results in local inflammation and swelling. In this assay, female BALB/c mice were sensitized on the shaved abdominal skin with 100 μl of 2% oxazalone dissolved in acetone/olive oil [4:1 (vol/vol)] applied topically (day 0). DTH sensitivity was elicited 6 days later by challenging the mice with 20 μl of 0.5% oxazalone in acetone/olive oil, 10 μl administered topically to each side of the right ear. Control group was subcutaneously injected with Dexamethasone 100 μg/mouse in a total volume of 200 μl. 24 hr after challenge the swelling of the right ear was measured using a Micrometer, digital caliper (Mitutoyo Corp, Tokyo, Japan). The swelling of the left ear was served as control and the readout of this experiment model was the delta between the right and left ear (FIG. 15E).", "data": [{"smiles": "OC1(c2ccc(Cl)c(C(F)(F)F)c2)CCN(CCCC(c2ccc(F)cc2)c2ccc(F)cc2)CC1", "note": "[Penfluridol]", "values": [{"measurement": "effect in mouse DTH model", "result": "pro-inflammatory effect"}]}]}
